Assay results reported in ChEMBL document CHEMBL1150141, “Cytotoxic diarylheptanoids from the roots of Juglans mandshurica” (J Nat Prod, 2002).
≈ marks a conversion by molar mass, not a printed value.

What was measured:
A549 = assay: Cytotoxicity against human A549 cells by MTT assay; type: functional, cell-based
HT-29 = assay: Cytotoxicity against human HT-29 cells by MTT assay; type: functional, cell-based

Row | Structure (SMILES) | IC50 (A549) [µg/mL] | IC50 (HT-29) [µg/mL]
1 | COc1cc(CC/C=C/C(=O)CCc2ccc(O)cc2)ccc1O | 5.4 (≈ 16.5 µM) | 8.2 (≈ 25.1 µM)
2 | COc1cc2ccc1Oc1cc(ccc1O)CCC(=O)CCCC2 | 2.2 (≈ 6.74 µM) | 5.3 (≈ 16.2 µM)
3 | COc1cc(C2CC(O)CC(C(O)Cc3ccc(O)cc3)O2)ccc1O (configuration not stated) | > 50 | > 50
4 | COc1ccc2cc1Oc1ccc(c(O)c1OC)CCCCC(O)CC2 (configuration not stated) | 11.5 (≈ 32.1 µM) | 23.9 (≈ 66.7 µM)
5 | COC(=O)C(O)(c1cc2c(c3oc([C@]4(C)C[C@@H]4C)cc(=O)c13)C(=O)c1c(ccc([C@H]3C[C@](C)(N(C)C)[C@H](O[C@@H]4C[C@H](OC)[C@H](O)[C@@H](C)O4)[C@H](C)O3)c1O)C2=O)[C@H]1O[C@H](C)[C@@H](O)[C@@H](OC)[C@@H]1O (some centres not stated) [ALTROMYCIN B] | 4.2 (≈ 4.55 µM) | 3.9 (≈ 4.22 µM)
6 | CC(C)(O)[C@@H]1CC[C@@]2(C)CCC[C@@](C)(O)[C@@H]2C1 | 9.9 (≈ 41.2 µM) | 12.9 (≈ 53.7 µM)
